Laboratory results as given in article PMC4264749, “Phlebotomy Treatment for Elimination of Perfluoroalkyl Acids in a Highly Exposed Family: A Retrospective Case-Series” (PLoS ONE, 2014).
Where two headings read alike, the source gives them in different places.

What was measured:
[1] = Serum PFAA concentrations in family members during intermittent phlebotomy (HPLC-MS/MS); format: in vivo, human; conditions: for Serum concentration before treatment: before phlebotomy; for Serum concentration after treatment: after phlebotomy
Description: After receiving informed consent, intermittent phlebotomy was undertaken at an overall rate (Table 2) that was equal to or less than the maximum rate of what is done for routine blood donations at the Canadian Blood Services: ∼500 ccs of whole blood every 56 days. Frequency and timing of blood removal was not consistent between family members because of their personal availability, success at each time of venesection, and compliance of each participant. […] Mineral supplementation was discussed and was taken by each participant.
All serum samples were submitted to ALS Laboratories (Edmonton, AB) for quantitative analysis of PFAAs (see Supporting Information, S1 Table). Samples were extracted by solid phase extraction and concentrations of PFHxS, PFOS, and PFOA were determined using high performance liquid chromatography/tandem mass spectrometry. Formic acid (0.1 M) along with a mixture of isotopically labeled PFAAs (Wellington Laboratories, Guelph, Ontario) were added to 1.0 mL of serum. The mixture was vortexed, sonicated, and subjected to solid phase extraction. The extract was concentrated to 100 uL and an instrument performance internal standard was added along with 200 uL of 90% 20 mM aqueous acetic acid/10% methanol. Procedural blanks were run with each set of samples, and method limits of quantification (LOQ) were 0.5 ng/mL for each analyte. For the few PFAA levels that fell below this LOQ (shown as hollow circles in Figs. 1–3), LOQ/√2 (i.e. 0.35 ng/mL) was substituted for purposes of data analysis. PFHxS, PFOS, and PFOA levels in all participating family members were >LOQ throughout the intervention except for 3 PFOS measurements out of 16 total measurements in the 3rd child and one PFOA measurement out of 9 total measurements in the […]. Written informed consent was given by participants (or parents in the case of children) for their clinical records to be used in this study.

[2] = Apparent elimination half-life (HLapp) and phlebotomy efficiency coefficient in treated family members; format: in vivo, human; conditions: family members with regular phlebotomy, except parent
Description: To evaluate the effect of phlebotomy, versus the expected rate of intrinsic elimination, we graphically and statistically compared the observed decreasing trends in each family member (fitted to a simple exponential decay model) with reference population elimination kinetics. Specifically, for the reference population of occupationally exposed retirees, we considered: i) the 95% confidence interval of the geometric mean elimination rate for each PFAA, and ii) the fastest individual rate of elimination rate among the reference population. For comparative purposes, the concentration of each PFAA in serum on the first day of the intervention was taken as time zero, and the models were forced through this starting point.
One metric that was calculated to compare the efficiency of the phlebotomy for removal of different PFAAs in each family member was termed the phlebotomy efficiency coefficient (EC). This was based on the subtractive difference between HLapp (yrs) in each treated family member and the geometric mean HLin (yrs) of the reference population according to Equation 1 . [drawing 1] (1)

[3] = parameters: method as in PMID 17805419; conditions: cited from earlier work
[4] = parameters: method as in PMID 23980546; conditions: urinary excretion, China, cited from earlier work
[5] = parameters: method as in earlier work; conditions: 2009–2011; cited from earlier work

O=S(=O)(O)C(F)(F)C(F)(F)C(F)(F)C(F)(F)C(F)(F)C(F)(F)C(F)(F)C(F)(F)F [PFOS, perfluoroctane sulfonate]
Serum concentration before treatment ([1]; 1st Child): 19.3 ng/mL
Serum concentration ([1]; 1st Child, sampling date 2009.10.12): 14.3 ng/mL
Serum concentration ([1]; 1st Child, sampling date 2009.12.24): 16.1 ng/mL
Serum concentration ([1]; 1st Child, sampling date 2009.6.9): 19.3 ng/mL
Serum concentration ([1]; 1st Child, sampling date 2009.9.9): 14.8 ng/mL
Serum concentration ([1]; 1st Child, sampling date 2010.10.14): 0.73 ng/mL
Serum concentration ([1]; 1st Child, sampling date 2010.1.17): 11.3 ng/mL
Serum concentration ([1]; 1st Child, sampling date 2010.2.11): 6.84 ng/mL
Serum concentration ([1]; 1st Child, sampling date 2010.4.14): 17.9 ng/mL
Serum concentration ([1]; 1st Child, sampling date 2011.12.5): 0.93 ng/mL
Serum concentration ([1]; 1st Child, sampling date 2011.5.17, LOD=0.5ng/mL): <LOD
Serum concentration ([1]; 1st Child, sampling date 2011.8.12, LOD=0.5ng/mL): <LOD
Serum concentration ([1]; 1st Child, sampling date 2012.12.28, LOD=0.5ng/mL): <LOD
Serum concentration ([1]; 1st Child, sampling date 2012.4.24): 2.12 ng/mL
Serum concentration ([1]; 1st Child, sampling date 2012.8.21): 1.44 ng/mL
Serum concentration ([1]; 1st Child, sampling date 2013.3.30): 0.61 ng/mL
Serum concentration ([1]; 1st Child, sampling date 2013.7.30): 1.59 ng/mL
Serum concentration before treatment ([1]; 2nd Child): 59.7 ng/mL
Serum concentration ([1]; 2nd Child, sampling date 2009.10.24): 44.7 ng/mL
Serum concentration ([1]; 2nd Child, sampling date 2009.6.6): 59.7 ng/mL
Serum concentration ([1]; 2nd Child, sampling date 2009.7.2): 51.9 ng/mL
Serum concentration ([1]; 2nd Child, sampling date 2009.7.30): 51.9 ng/mL
Serum concentration ([1]; 2nd Child, sampling date 2009.8.24): 67.8 ng/mL
Serum concentration ([1]; 2nd Child, sampling date 2009.9.27): 41.4 ng/mL
Serum concentration ([1]; 2nd Child, sampling date 2010.1.3): 36.6 ng/mL
Serum concentration ([1]; 2nd Child, sampling date 2010.2.15): 47.7 ng/mL
Serum concentration ([1]; 2nd Child, sampling date 2011.10.2): 1.8 ng/mL
Serum concentration ([1]; 2nd Child, sampling date 2011.12.24): 13.9 ng/mL
Serum concentration ([1]; 2nd Child, sampling date 2011.4.27): 7.0 ng/mL
Serum concentration ([1]; 2nd Child, sampling date 2011.8.14): 4.6 ng/mL
Serum concentration ([1]; 2nd Child, sampling date 2012.12.24): 5.5 ng/mL
Serum concentration ([1]; 2nd Child, sampling date 2012.4.6): 12.2 ng/mL
Serum concentration ([1]; 2nd Child, sampling date 2013.5.11.): 9.2 ng/mL
Serum concentration ([1]; 2nd Child, sampling date 2013.7.15): 9.0 ng/mL
Serum concentration before treatment ([1]; 3rd Child): 87.3 ng/mL
Serum concentration ([1]; 3rd Child, sampling date 2009.10.11): 107.0 ng/mL
Serum concentration ([1]; 3rd Child, sampling date 2009.12.16): 48.9 ng/mL
Serum concentration ([1]; 3rd Child, sampling date 2009.6.1): 87.3 ng/mL
Serum concentration ([1]; 3rd Child, sampling date 2009.7.4): 102.9 ng/mL
Serum concentration ([1]; 3rd Child, sampling date 2009.8.7): 76.5 ng/mL
Serum concentration ([1]; 3rd Child, sampling date 2009.9.7): 113.0 ng/mL
Serum concentration ([1]; 3rd Child, sampling date 2010.1.24): 58.8 ng/mL
Serum concentration ([1]; 3rd Child, sampling date 2010.3.12): 66.3 ng/mL
Serum concentration ([1]; 3rd Child, sampling date 2010.5.23): 52.8 ng/mL
Serum concentration ([1]; 3rd Child, sampling date 2011.1.6): 18.6 ng/mL
Serum concentration ([1]; 3rd Child, sampling date 2011.11.26): 9.2 ng/mL
Serum concentration ([1]; 3rd Child, sampling date 2011.2.24): 11.9 ng/mL
Serum concentration ([1]; 3rd Child, sampling date 2011.4.30): 12.1 ng/mL
Serum concentration ([1]; 3rd Child, sampling date 2011.6.13): 11.5 ng/mL
Serum concentration ([1]; 3rd Child, sampling date 2011.9.27): 4.8 ng/mL
Serum concentration ([1]; 3rd Child, sampling date 2012.10.16): 17.1 ng/mL
Serum concentration ([1]; 3rd Child, sampling date 2012.1.8): 20.8 ng/mL
Serum concentration ([1]; 3rd Child, sampling date 2012.12.9): 10.5 ng/mL
Serum concentration ([1]; 3rd Child, sampling date 2012.3.4): 25.4 ng/mL
Serum concentration ([1]; 3rd Child, sampling date 2012.4.28): 19.8 ng/mL
Serum concentration ([1]; 3rd Child, sampling date 2013.10.27): 12.2 ng/mL
Serum concentration ([1]; 3rd Child, sampling date 2013.2.5): 8.8 ng/mL
Serum concentration ([1]; 3rd Child, sampling date 2013.3.30): 8.0 ng/mL
Serum concentration ([1]; 3rd Child, sampling date 2013.5.5): 12.8 ng/mL
Serum concentration ([1]; 3rd Child, sampling date 2013.7.25): 13.4 ng/mL
Serum concentration ([1]; 3rd Child, sampling date 2013.9.8): 12.0 ng/mL
starting serum concentration relative to 95th percentile among Canadians ([1]; 3 youngest children): 3–5 fold
Serum concentration after treatment ([1]; 4th Child): 5.0 ng/mL
Serum concentration before treatment ([1]; 4th Child): 62.4 ng/mL
Serum concentration ([1]; 4th Child, sampling date 2010.1.24): 26.8 ng/mL
Serum concentration after treatment ([1]; Average of 6 family members): 6.7 ng/mL
Serum concentration before treatment ([1]; Average of 6 family members): 43.4 ng/mL
Serum concentration before treatment ([1]; Parent one): 15.1 ng/mL
Serum concentration ([1]; Parent one, sampling date 2009.10.11): 8.8 ng/mL
Serum concentration ([1]; Parent one, sampling date 2009.10.12): 9.2 ng/mL
Serum concentration ([1]; Parent one, sampling date 2009.11.12): 11.0 ng/mL
Serum concentration ([1]; Parent one, sampling date 2009.12.14): 8.6 ng/mL
Serum concentration ([1]; Parent one, sampling date 2009.2.2): 15.1 ng/mL
Serum concentration ([1]; Parent one, sampling date 2009.5.18): 13.2 ng/mL
Serum concentration ([1]; Parent one, sampling date 2009.6.1): 11.8 ng/mL
Serum concentration ([1]; Parent one, sampling date 2009.7.4): 9.8 ng/mL
Serum concentration ([1]; Parent one, sampling date 2009.9.1): 11.3 ng/mL
Serum concentration ([1]; Parent one, sampling date 2010.10.10): 6.1 ng/mL
Serum concentration ([1]; Parent one, sampling date 2010.1.17): 8.6 ng/mL
Serum concentration ([1]; Parent one, sampling date 2010.3.13): 6.8 ng/mL
Serum concentration ([1]; Parent one, sampling date 2011.1.6): 2.3 ng/mL
Serum concentration ([1]; Parent one, sampling date 2011.11.26): 1.4 ng/mL
Serum concentration ([1]; Parent one, sampling date 2011.2.24): 2.1 ng/mL
Serum concentration ([1]; Parent one, sampling date 2011.4.30): 1.5 ng/mL
Serum concentration ([1]; Parent one, sampling date 2011.6.22): 1.6 ng/mL
Serum concentration ([1]; Parent one, sampling date 2011.8.4): 1.3 ng/mL
Serum concentration ([1]; Parent one, sampling date 2011.9.27): 0.5 ng/mL
Serum concentration ([1]; Parent one, sampling date 2012..12.28): 0.66 ng/mL
Serum concentration ([1]; Parent one, sampling date 2012.1.14): 3.8 ng/mL
Serum concentration ([1]; Parent one, sampling date 2012.11.1): 1.7 ng/mL
Serum concentration ([1]; Parent one, sampling date 2012.3.4): 3.7 ng/mL
Serum concentration ([1]; Parent one, sampling date 2012.4.29): 2.7 ng/mL
Serum concentration ([1]; Parent one, sampling date 2012.7.8): 3.1 ng/mL
Serum concentration ([1]; Parent one, sampling date 2012.8.21): 3.1 ng/mL
Serum concentration ([1]; Parent one, sampling date 2013.10.27): 1.4 ng/mL
Serum concentration ([1]; Parent one, sampling date 2013.2.18): 1.3 ng/mL
Serum concentration ([1]; Parent one, sampling date 2013.3.30): 1.5 ng/mL
Serum concentration ([1]; Parent one, sampling date 2013.5.11): 2.5 ng/mL
Serum concentration ([1]; Parent one, sampling date 2013.7.15): 2.3 ng/mL
Serum concentration ([1]; Parent one, sampling date 2013.9.8): 1.4 ng/mL
Serum concentration before treatment ([1]; Parent two): 16.3 ng/mL
Serum concentration ([1]; Parent two, sampling date 2009.6.1): 16.3 ng/mL
Serum concentration ([1]; Parent two, sampling date 2009.7.7): 10.9 ng/mL
Serum concentration ([1]; Parent two, sampling date 2009.8.24): 10.4 ng/mL
Serum concentration ([1]; Parent two, sampling date 2010.1.3): 5.7 ng/mL
Serum concentration ([1]; Parent two, sampling date 2010.4.11, LOD=0.5ng/mL): 4.4 ng/mL
Serum concentration ([1]; Parent two, sampling date 2012.3.13): 4.1 ng/mL
Serum concentration ([1]; Parent two, sampling date 2013.1.1): 2.5 ng/mL
Serum concentration ([1]; Parent two, sampling date 2013.10.6): 11.0 ng/mL
Serum concentration ([1]; Parent two, sampling date 2013.6.22): 3.4 ng/mL
HLapp compared with geometric mean HLin of reference population [2]: significantly shorter
HLin of fastest eliminator in the reference population ([3]; reference population of occupationally exposed retirees (26 individuals)): 2.4 yrs
95% confidence interval of the geometric mean HLin ([3]; reference population of occupationally exposed retirees): 4.0–5.8 yrs
intrinsic human elimination half-life (HLin) ([3]; serum, highly contaminated retirees >55 yrs, previously occupationally exposed): 5.4 years
HLin, 95% confidence interval ([3]; serum, retirees >55 yrs, previously occupationally exposed): 3.9–6.9 yrs
HLapp ([4]; males and post-menopausal females): 27 years
HLapp ([4]; reproductive-aged females): 6.2 years
95th percentile of serum concentration among Canadians [5]: 18 ng/mL
